{"source": "ChEMBL document CHEMBL1128651", "about": "“Preparation and in vitro activity of aryl ether derivatives of the FK-506 related immunosuppressive macrolides ascomycin and L-683,742” (Bioorg Med Chem Lett, 1995)"}
{"system": "Murine T-cell line", "assay": "Inhibition of proliferation of PMA and Ionomycin stimulated murine T cells", "type": "functional, cell-based", "conditions": "Mus musculus", "units": {"IC50": "nM"}}
{"molecule": "CC[C@@H]1/C=C(\\C)C[C@H](C)C[C@H](OC)[C@H]2O[C@@](O)(C(=O)C(=O)N3CCCC[C@H]3C(=O)O[C@H](/C(C)=C/[C@@H]3CC[C@@H](Oc4cc(C(F)(F)F)cc(C(F)(F)F)c4)[C@H](OC)C3)[C@H](C)[C@@H](O)CC1=O)[C@H](C)C[C@@H]2OC", "IC50": 607}
{"molecule": "CC[C@@H]1/C=C(\\C)C[C@H](C)C[C@H](OC)[C@H]2O[C@@](O)(C(=O)C(=O)N3CCCC[C@H]3C(=O)O[C@H](/C(C)=C/[C@@H]3CC[C@@H](Oc4ccccc4)[C@H](OC)C3)[C@H](C)[C@@H](O)CC1=O)[C@H](C)C[C@@H]2OC", "IC50": 5.4}
{"molecule": "CC[C@@H]1/C=C(\\C)C[C@H](C)C[C@H](OC)[C@H]2O[C@@](O)(C(=O)C(=O)N3CCCC[C@H]3C(=O)O[C@H](/C(C)=C/[C@@H]3CC[C@@H](Oc4ccc(C)cc4)[C@H](O)C3)[C@H](C)[C@@H](O)CC1=O)[C@H](C)C[C@@H]2OC", "IC50": 6}
{"molecule": "CC[C@@H]1/C=C(\\C)C[C@H](C)C[C@H](OC)[C@H]2O[C@@](O)(C(=O)C(=O)N3CCCC[C@H]3C(=O)O[C@H](/C(C)=C/[C@@H]3CC[C@@H](O)[C@H](Oc4ccc(C)cc4)C3)[C@H](C)[C@@H](O)CC1=O)[C@H](C)C[C@@H]2OC", "IC50": 2.6}
{"molecule": "CC[C@@H]1/C=C(\\C)C[C@H](C)C[C@H](OC)[C@H]2O[C@@](O)(C(=O)C(=O)N3CCCC[C@H]3C(=O)O[C@H](/C(C)=C/[C@@H]3CC[C@@H](Oc4ccc(F)cc4)[C@H](OC)C3)[C@H](C)[C@@H](O)CC1=O)[C@H](C)C[C@@H]2OC", "IC50": 3.4}
{"molecule": "CC[C@@H]1/C=C(\\C)C[C@H](C)C[C@H](OC)[C@H]2O[C@@](O)(C(=O)C(=O)N3CCCC[C@H]3C(=O)O[C@H](/C(C)=C/[C@@H]3CC[C@@H](Oc4ccccc4)[C@H](O)C3)[C@H](C)[C@@H](O)CC1=O)[C@H](C)C[C@@H]2OC", "IC50": 5.2}
{"molecule": "CC[C@@H]1/C=C(\\C)C[C@H](C)C[C@H](OC)[C@H]2O[C@@](O)(C(=O)C(=O)N3CCCC[C@H]3C(=O)O[C@H](/C(C)=C/[C@@H]3CC[C@@H](O)[C@H](Oc4ccc(O)cc4)C3)[C@H](C)[C@@H](O)CC1=O)[C@H](C)C[C@@H]2OC", "IC50": 0.9}
{"molecule": "CC[C@@H]1/C=C(\\C)C[C@H](C)C[C@H](OC)[C@H]2O[C@@](O)(C(=O)C(=O)N3CCCC[C@H]3C(=O)O[C@H](/C(C)=C/[C@@H]3CC[C@@H](Oc4ccc(O)cc4)[C@H](O)C3)[C@H](C)[C@@H](O)CC1=O)[C@H](C)C[C@@H]2OC", "IC50": 1.6}
{"molecule": "CC[C@@H]1/C=C(\\C)C[C@H](C)C[C@H](OC)[C@H]2O[C@@](O)(C(=O)C(=O)N3CCCC[C@H]3C(=O)O[C@H](/C(C)=C/[C@@H]3CC[C@@H](Oc4cccc(C)c4)[C@H](OC)C3)[C@H](C)[C@@H](O)CC1=O)[C@H](C)C[C@@H]2OC", "IC50": 5.4}
{"molecule": "CC[C@@H]1/C=C(\\C)C[C@H](C)C[C@H](OC)[C@H]2O[C@@](O)(C(=O)C(=O)N3CCCC[C@H]3C(=O)O[C@H](/C(C)=C/[C@@H]3CC[C@@H](Oc4ccc(O)cc4)[C@H](OC)C3)[C@H](C)[C@@H](O)CC1=O)[C@H](C)C[C@@H]2OC", "IC50": 0.8}
{"molecule": "CC[C@@H]1/C=C(\\C)C[C@H](C)C[C@H](OC)[C@H]2O[C@@](O)(C(=O)C(=O)N3CCCC[C@H]3C(=O)O[C@H](/C(C)=C/[C@@H]3CC[C@@H](O)[C@H](Oc4ccccc4)C3)[C@H](C)[C@@H](O)CC1=O)[C@H](C)C[C@@H]2OC", "IC50": 3.2}
{"molecule": "CC[C@@H]1/C=C(\\C)C[C@H](C)C[C@H](OC)[C@H]2O[C@@](O)(C(=O)C(=O)N3CCCC[C@H]3C(=O)O[C@H](/C(C)=C/[C@@H]3CC[C@@H](O)[C@H](O)C3)[C@H](C)[C@@H](O)CC1=O)[C@H](C)C[C@@H]2OC", "IC50": 1.63}
{"molecule": "CC[C@@H]1/C=C(\\C)C[C@H](C)C[C@H](OC)[C@H]2O[C@@](O)(C(=O)C(=O)N3CCCC[C@H]3C(=O)O[C@H](/C(C)=C/[C@@H]3CC[C@@H](O)[C@H](Oc4ccc(OC)cc4)C3)[C@H](C)[C@@H](O)CC1=O)[C@H](C)C[C@@H]2OC", "IC50": 0.9}
{"molecule": "CC[C@@H]1/C=C(\\C)C[C@H](C)C[C@H](OC)[C@H]2O[C@@](O)(C(=O)C(=O)N3CCCC[C@H]3C(=O)O[C@H](/C(C)=C/[C@@H]3CC[C@@H](Oc4ccc(C(F)(F)F)cc4)[C@H](OC)C3)[C@H](C)[C@@H](O)CC1=O)[C@H](C)C[C@@H]2OC", "IC50": 35.8}
{"molecule": "CC[C@@H]1/C=C(\\C)C[C@H](C)C[C@H](OC)[C@H]2O[C@@](O)(C(=O)C(=O)N3CCCC[C@H]3C(=O)O[C@H](/C(C)=C/[C@@H]3CC[C@@H](Oc4cccc(OC)c4)[C@H](OC)C3)[C@H](C)[C@@H](O)CC1=O)[C@H](C)C[C@@H]2OC", "IC50": 3.4}
{"molecule": "CC[C@@H]1/C=C(\\C)C[C@H](C)C[C@H](OC)[C@H]2O[C@@](O)(C(=O)C(=O)N3CCCC[C@H]3C(=O)O[C@H](/C(C)=C/[C@@H]3CC[C@@H](Oc4ccc(SC)cc4)[C@H](OC)C3)[C@H](C)[C@@H](O)CC1=O)[C@H](C)C[C@@H]2OC", "IC50": 2.6}
{"molecule": "CC[C@@H]1/C=C(\\C)C[C@H](C)C[C@H](OC)[C@H]2O[C@@](O)(C(=O)C(=O)N3CCCC[C@H]3C(=O)O[C@H](/C(C)=C/[C@@H]3CC[C@@H](Oc4cccc(O)c4)[C@H](OC)C3)[C@H](C)[C@@H](O)CC1=O)[C@H](C)C[C@@H]2OC", "IC50": 1.7}
{"molecule": "CC[C@@H]1/C=C(\\C)C[C@H](C)C[C@H](OC)[C@H]2O[C@@](O)(C(=O)C(=O)N3CCCC[C@H]3C(=O)O[C@H](/C(C)=C/[C@@H]3CC[C@@H](Oc4ccc(N(C)C)cc4)[C@H](OC)C3)[C@H](C)[C@@H](O)CC1=O)[C@H](C)C[C@@H]2OC", "IC50": 1.1}
{"molecule": "CC[C@@H]1/C=C(\\C)C[C@H](C)C[C@H](OC)[C@H]2O[C@@](O)(C(=O)C(=O)N3CCCC[C@H]3C(=O)O[C@H](/C(C)=C/[C@@H]3CC[C@@H](Oc4ccc(OC)cc4)[C@H](OC)C3)[C@H](C)[C@@H](O)CC1=O)[C@H](C)C[C@@H]2OC", "IC50": 1.4}
{"molecule": "CC[C@@H]1/C=C(\\C)C[C@H](C)C[C@H](OC)[C@H]2O[C@@](O)(C(=O)C(=O)N3CCCC[C@H]3C(=O)O[C@H](/C(C)=C/[C@@H]3CC[C@@H](Oc4ccc(C)cc4)[C@H](OC)C3)[C@H](C)[C@@H](O)CC1=O)[C@H](C)C[C@@H]2OC", "IC50": 2.7}
{"molecule": "CC[C@@H]1/C=C(\\C)C[C@H](C)C[C@H](OC)[C@H]2O[C@@](O)(C(=O)C(=O)N3CCCC[C@H]3C(=O)O[C@H](/C(C)=C/[C@@H]3CC[C@@H](Oc4ccc(OC)cc4)[C@H](O)C3)[C@H](C)[C@@H](O)CC1=O)[C@H](C)C[C@@H]2OC", "IC50": 1.2}
{"molecule": "CC[C@@H]1/C=C(\\C)C[C@H](C)C[C@H](OC)[C@H]2O[C@@](O)(C(=O)C(=O)N3CCCC[C@H]3C(=O)O[C@H](/C(C)=C/[C@@H]3CC[C@@H](O)[C@H](OC)C3)[C@H](C)[C@@H](O)CC1=O)[C@H](C)C[C@@H]2OC", "note": "[ASCOMYCIN]", "IC50": 0.69}
